Laboratory results published in patent US10131653B2, “Heterocyclic compound” (TAKEDA PHARMACEUTICAL COMPANY LIMITED, priority 2015, dated 2018).
Counter-ions that a name gives are not always drawn.

Legend:
[1] = biological target: T1, human OX1 receptor (Homo sapiens, UniProt O43613); experiment: Measurement of orexin receptor antagonistic activity (calcium fluorescence, FLIPRtetra); format: cell-based; settings: CHO, 10 μM test compound; CHO cells expressing human OX1 receptor; OX-A 1 nM; read-out: Human Orexin1 receptor inhibition (at 10 μM)
T1 construct: expressed in transfected cells; host or cells: CHO cells
T1 sequence (O43613 1-425): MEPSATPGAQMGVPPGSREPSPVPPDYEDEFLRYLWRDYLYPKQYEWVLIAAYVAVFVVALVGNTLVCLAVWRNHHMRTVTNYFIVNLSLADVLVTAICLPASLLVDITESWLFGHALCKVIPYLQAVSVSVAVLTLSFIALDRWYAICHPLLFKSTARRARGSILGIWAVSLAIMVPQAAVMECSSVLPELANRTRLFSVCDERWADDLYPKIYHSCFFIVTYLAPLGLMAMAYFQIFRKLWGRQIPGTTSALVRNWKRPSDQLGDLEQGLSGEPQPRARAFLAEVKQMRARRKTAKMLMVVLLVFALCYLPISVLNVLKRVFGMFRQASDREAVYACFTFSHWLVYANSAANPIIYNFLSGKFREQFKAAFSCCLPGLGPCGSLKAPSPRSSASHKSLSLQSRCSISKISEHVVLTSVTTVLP
Summary of the method: (§1)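 CHO cells expressing human OX1 or OX2 receptor, cultured one day. Compound in HBSS/20 mM HEPES/0.1% BSA added, then orexin-A at 1 nM final (OX1) or 0.3 nM final (OX2); calcium fluorescence by FLIPRtetra every 1 s for 2 min.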

[2] = biological target: T2, human OX2 receptor (Homo sapiens, UniProt O43614); experiment: as above; format: cell-based; settings: CHO, 10 μM test compound; CHO cells expressing human OX2 receptor; OX-A 0.3 nM; read-out: Human Orexin2 receptor inhibition (at 10 μM)
T2 construct: expressed in transfected cells; host or cells: CHO cells
T2 sequence (O43614 1-444): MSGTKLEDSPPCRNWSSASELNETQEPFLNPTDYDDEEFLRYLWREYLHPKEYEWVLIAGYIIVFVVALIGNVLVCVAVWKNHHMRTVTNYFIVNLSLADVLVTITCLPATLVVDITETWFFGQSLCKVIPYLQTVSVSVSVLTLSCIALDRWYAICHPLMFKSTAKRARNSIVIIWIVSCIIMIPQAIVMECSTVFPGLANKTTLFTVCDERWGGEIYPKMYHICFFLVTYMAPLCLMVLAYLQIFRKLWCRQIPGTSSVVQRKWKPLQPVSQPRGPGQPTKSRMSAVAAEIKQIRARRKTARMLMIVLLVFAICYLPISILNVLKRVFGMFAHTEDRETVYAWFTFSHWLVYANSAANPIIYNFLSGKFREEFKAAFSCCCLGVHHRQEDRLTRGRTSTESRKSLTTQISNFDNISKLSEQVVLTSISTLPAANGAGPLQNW
Summary of the method: as §1

Compound | inhibition at 10 µM [1] [%] | inhibition at 10 µM [2] [%]
C[C@@H]1CON(c2cccc(CO)n2)CCN1C(=O)c1ccccc1-n1nccn1 [Example 158, ((6R)-2-(6-(hydroxymethyl)pyridin-2-yl)-6-methyl-1,2,5-oxadiazepan-5-yl)(2-(2H-1,2,3-triazol-2-yl)phenyl)methanone] | 18 | 99
COc1ncnc(N2CCN(C(=O)c3ccccc3-n3nccn3)[C@H](C)CO2)n1 [Example 159, ((6R)-2-(4-methoxy-1,3,5-triazin-2-yl)-6-methyl-1,2,5-oxadiazepan-5-yl)(2-(2H-1,2,3-triazol-2-yl)phenyl)methanone] | 16 | 89
COc1cc(N2CCN(C(=O)c3ccccc3-n3nccn3)[C@H](C)CO2)nc(C)n1 [Example 160, ((6R)-2-(6-methoxy-2-methylpyrimidin-4-yl)-6-methyl-1,2,5-oxadiazepan-5-yl)(2-(2H-1,2,3-triazol-2-yl)phenyl)methanone] | 82 | 101
Cc1cc(C)nc(N2CCN(C(=O)c3cc(F)ccc3-n3nccn3)[C@H](C)CO2)n1 [Example 161, ((6R)-2-(4,6-dimethylpyrimidin-2-yl)-6-methyl-1,2,5-oxadiazepan-5-yl)(5-fluoro-2-(2H-1,2,3-triazol-2-yl)phenyl)methanone hydrochloride] | 46 | 102
Cc1cc(N2CCN(C(=O)c3cc(F)ccc3-n3nccn3)[C@H](C)CO2)nc(C)n1 [Example 162, ((6R)-2-(2,6-dimethylpyrimidin-4-yl)-6-methyl-1,2,5-oxadiazepan-5-yl)(5-fluoro-2-(2H-1,2,3-triazol-2-yl)phenyl)methanone] | 42 | 100
Cc1cc(C#N)nc(N2CCN(C(=O)c3cc(F)ccc3-n3nccn3)[C@H](C)CO2)n1 [Example 163, 2-((6R)-5-(5-fluoro-2-(2H-1,2,3-triazol-2-yl)benzoyl)-6-methyl-1,2,5-oxadiazepan-2-yl)-6-methylpyrimidine-4-carbonitrile] | 61 | 102
Cc1csc(N2CCN(C(=O)c3cc(F)ccc3-n3nccn3)[C@H](C)CO2)n1 [Example 164, (5-fluoro-2-(2H-1,2,3-triazol-2-yl)phenyl)((6R)-6-methyl-2-(4-methyl-1,3-thiazol-2-yl)-1,2,5-oxadiazepan-5-yl)methanone] | 8 | 43
C[C@@H]1CON(c2ncnc3ccn(C)c23)CCN1C(=O)c1cc(F)ccc1-n1nccn1 [Example 165, (5-fluoro-2-(2H-1,2,3-triazol-2-yl)phenyl)((6R)-6-methyl-2-(5-methyl-5H-pyrrolo[3,2-d]pyrimidin-4-yl)-1,2,5-oxadiazepan-5-yl)methanone] | 24 | 24
Cc1nc(N2CCN(C(=O)c3cc(F)ccc3-n3nccn3)[C@H](C)CO2)nc(C)c1F [Example 166, ((6R)-2-(5-fluoro-4,6-dimethylpyrimidin-2-yl)-6-methyl-1,2,5-oxadiazepan-5yl)(5-fluoro-2-(2H-1,2,3-triazol-2-yl)phenyl)methanone] | 81 | 97
Cc1nc(N2CCN(C(=O)c3cc(F)ccc3-n3nccn3)[C@H](C)CO2)nc(C)c1Cl [Example 167, ((6R)-2-(5-chloro-4,6-dimethylpyrimidin-2-yl)-6-methyl-1,2,5-oxadiazepan-5-yl)(5-fluoro-2-(2H-1,2,3-triazol-2-yl)phenyl)methanone] | 100 | 98
CC[C@@H]1CON(c2cc(C)nc(C)n2)CCN1C(=O)c1ccccc1-n1nccn1 [Example 168, ((6R)-2-(2,6-dimethylpyrimidin-4-yl)-6-ethyl-1,2,5-oxadiazepan-5-yl)(2-(2H-1,2,3-triazol-2-yl)phenyl)methanone] | 95 | 99
CC[C@@H]1CON(c2cc(C)nc(C)n2)CCN1C(=O)c1ccccc1-c1nccs1 [Example 169, ((6R)-2-(2,6-dimethylpyrimidin-4-yl)-6-ethyl-1,2,5-oxadiazepan-5-yl)(2-(1,3-thiazol-2-yl)phenyl)methanone] | 100 | 99
Cc1cc(N2CCN(C(=O)c3ccccc3-n3nccn3)[C@@H](C)CO2)nc(C)n1 [Example 170, ((6S)-2-(2,6-dimethylpyrimidin-4-yl)-6-methyl-1,2,5-oxadiazepan-5-yl)(2-(2H-1,2,3-triazol-2-yl)phenyl)methanone] | 20 | 100
Cc1cc(N2CCN(C(=O)c3ccccc3-c3nccs3)[C@@H](C)CO2)nc(C)n1 [Example 171, ((6S)-2-(2,6-dimethylpyrimidin-4-yl)-6-methyl-1,2,5-oxadiazepan-5-yl)(2-(1,3-thiazol-2-yl)phenyl)methanone] | 37 | 102
Cc1cc(N2C[C@H](C)N(C(=O)c3ccccc3-n3nccn3)[C@H](C)CO2)nc(C)n1 [Example 172, ((4S,6R)-2-(2,6-dimethylpyrimidin-4-yl)-4,6-dimethyl-1,2,5-oxadiazepan-5-yl)(2-(2H-1,2,3-triazol-2-yl)phenyl)methanone] | 103 | 100
Cc1nccc(N2C[C@H](C)N(C(=O)c3ccccc3-n3nccn3)[C@H](C)CO2)n1 [Example 173, ((4S,6R)-4,6-dimethyl-2-(2-methylpyrimidin-4-yl)-1,2,5-oxadiazepan-5-yl) (2-(2H-1,2,3-triazol-2-yl)phenyl)methanone] | 103 | 103
Cc1cc(N2C[C@H](C)N(C(=O)c3ccccc3-n3nccn3)[C@H](C)CO2)ncn1 [Example 174, ((4S,6R)-4,6-dimethyl-2-(6-methylpyrimidin-4-yl)-1,2,5-oxadiazepan-5-yl) (2-(2H-1,2,3-triazol-2-yl)phenyl)methanone] | 95 | 98
C[C@@H]1CON(c2ccnc(C3CC3)n2)C[C@H](C)N1C(=O)c1ccccc1-n1nccn1 [Example 175, ((4S,6R)-2-(2-cyclopropylpyrimidin-4-yl)-4,6-dimethyl-1,2,5-oxadiazepan-5-yl) (2-(2H-1,2,3-triazol-2-yl)phenyl)methanone] | 99 | 98
Cc1ccc(-n2nccn2)c(C(=O)N2[C@H](C)CON(c3cc(C)nc(C)n3)C[C@@H]2C)c1 [Example 176, ((4S,6R)-2-(2,6-dimethylpyrimidin-4-yl)-4,6-dimethyl-1,2,5-oxadiazepan-5-yl)(5-methyl-2-(2H-1,2,3-triazol-2-yl)phenyl)methanone] | 103 | 101
Cc1ccc(-n2nccn2)c(C(=O)N2[C@H](C)CON(c3cc(C)nc(C(F)(F)F)n3)C[C@@H]2C)c1 [Example 177, ((4S,6R)-4,6-dimethyl-2-(6-methyl-2-(trifluoromethyl)pyrimidin-4-yl)-1,2,5-oxadiazepan-5-yl) (5-methyl-2-(2H-1,2,3-triazol-2-yl)phenyl)methanone] | 102 | 106
Cc1ccc(-n2nccn2)c(C(=O)N2[C@H](C)CON(c3cc(C(F)(F)F)nc(C)n3)C[C@@H]2C)c1 [Example 178, ((4S,6R)-4,6-dimethyl-2-(2-methyl-6-(trifluoromethyl)pyrimidin-4-yl)-1,2,5-oxadiazepan-5-yl) (5-methyl-2-(2H-1,2,3-triazol-2-yl)phenyl)methanone] | 105 | 99
